Assay results: patent US9271978B2 (Zenith Epigenetics Corp., priority 2012, dated 2016)

Legend:
hIL-6 mRNA = test: Inhibition of hIL-6 mRNA transcription in U937 cells; format: cell-based, human; parameters: key: Active: Compounds with an IC50 value less than 30 μM were deemed to be active.; Not Active: Compounds with an IC50 value less than 30 μM were deemed to be active; details: LPS stimulation, active = IC50 <30 μM
Procedure, shortened: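 Readout is one-step real-time PCR of hIL-6 mRNA, normalized to an internal control and given as fold induction versus control. Cells: PMA (60 ng/mL, 3 days)-differentiated U937 macrophages, compound added 1 h before 1 ug/mL LPS, harvested after 3 h at 37° C.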

ApoA-I mRNA = test: Up-regulation of hApoA-1 mRNA transcription in Huh7 cells; format: cell-based, human; parameters: key: Active: Compounds with an EC170 value less than 30 μM were deemed to be active; details: 48 h treatment, ApoA-I mRNA by real-time PCR, Active = EC170 less than 30 μM
Experimental: In this example, ApoA-I mRNA in tissue culture cells was quantitated to measure the transcriptional up-regulation of ApoA-I when treated with a compound of the present disclosure.
Huh7 cells (2.5×10^5 per well) were plated in a 96-well plate using 100 μL DMEM per well, (Gibco DMEM supplemented with penicillin/streptomycin and 10% FBS), 24 h before the addition of the compound of interest. After 48 h treatment, the spent media was removed from the Huh-7 cells and placed on ice (for immediate use) or at −80° C. (for future use) with the “LDH cytotoxicity assay Kit II” from Abcam. The cells remaining in the plate were rinsed with 100 μL PBS.
Then 85 μL of cell lysis solution was added to each well and incubated for 5-10 min at room temperature, to allow for complete cell lysis and detachment. mRNA was then prepared using the “mRNA Catcher PLUS plate” from Life Technologies, according to the protocol supplied. After the last wash, as much wash buffer as possible was aspirated without allowing the wells to dry. Elution Buffer (E3, 80 μL) was then added to each well. mRNA was then eluted by incubating the mRNA Catcher PLUS plate with Elution Buffer for 5 min at 68° C., and then 1 min at 4° C. Catcher plates with mRNA eluted were kept on ice for use or stored at −80° C.
The eluted mRNA isolated was then used in a one-step real-time PCR reaction, using components of the Ultra Sense Kit together with Life Technologies primer-probe mixes. Real-time PCR data was analyzed, using the Ct values, to determine the fold induction of each unknown sample, relative to the control (that is, relative to the control for each independent DMSO concentration).
Compounds with an EC170 value less than 30 μM were deemed to be active.

[1] = target: T1, Brd4 bromodomain 1 (BRD4(1)) (Homo sapiens, UniProt O60885); test: Inhibition of tetra-acetylated histone H4 binding to Brd4 bromodomain 1 (TR-FRET); parameters: key: Active: Compounds with an IC50 value less than 30 μM were deemed to be active.; Not Active: Compounds with an IC50 value less than 30 μM were deemed to be active; details: tetra-acetylated histone H4 peptide, active = IC50 <30 μM
T1 construct: Illustrative results with the first bromodomain of Brd4; made in house; host or cells: E. coli BL21 (DE3)
Procedure, shortened: (§1)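 IC50 values come from dose-response curves of the 665 nm to 620 nm TR-FRET signal decrease, measured after 2 h at room temperature. Reactions contained 200 nM E. coli-expressed His-tagged bromodomain, 25-50 nM biotinylated tetra-acetylated H4 peptide, Eu-streptavidin plus XL665 anti-His antibody, with 30 mM HEPES pH 7.4, 320 mM KF and 0.2% DMSO.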

[2] = tested on: human AML MV-4-11 (CRL-9591) cells; test: Inhibition of cell proliferation in MV4-11 cells; format: cell-based; parameters: key: Active: Compounds with an IC50 value less than 30 μM were deemed to be active.; Not Active: Compounds with an IC50 value less than 30 μM were deemed to be active; details: human AML MV-4-11 cells, 72 h; active = IC50 <30 μM
Procedure, shortened: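 IC50 values come from blank-corrected proliferation relative to DMSO controls, read as 490 nm absorbance 3–4 h after CellTiter Aqueous One addition. Before that, cells seeded at 5×10^4/well were exposed for 72 h (37° C, 5% CO2) to triplicate two-fold compound dilutions spanning 30–0.2 μM.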

c-myc = test: Inhibition of c-myc expression in MV4-11 cells (mRNA, real-time PCR); format: cell-based; parameters: key: Active: Compounds with an IC50 value less than 30 μM were deemed to be active.; Not Active: Compounds with an IC50 value less than 30 μM were deemed to be active; details: Human AML MV4-11 cells, 3 h incubation
Procedure, shortened: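 Duplex RT-qPCR of c-myc against cyclophilin cDNA gave IC50 from a dose–response curve. Input was isolated mRNA from 2.5×10^4 MV4-11 cells after 3 h exposure at 37 °C to compound or 0.1% DMSO vehicle.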

[3] = target: T2, second bromodomain of Brd2 (BRD2(2)) (Homo sapiens, UniProt P25440); test: Inhibition of tetra-acetylated histone H4 binding to Brd2 bromodomain 2 (TR-FRET); parameters: key: Active: Compounds with an IC50 value less than 30 μM were deemed to be active.; Not Active: Compounds with an IC50 value less than 30 μM were deemed to be active; details: tetra-acetylated histone H4 peptide, active = IC50 <30 μM
T2 construct: made in house; host or cells: E. coli BL21 (DE3)
T2 sequence (P25440 344-453 limits assumed): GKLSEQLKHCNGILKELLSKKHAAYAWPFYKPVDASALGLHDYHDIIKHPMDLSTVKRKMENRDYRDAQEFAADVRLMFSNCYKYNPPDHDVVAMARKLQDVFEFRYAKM
Procedure, shortened: as §1

Cc1noc(C)c1-c1ccc(=O)n(Cc2cccc(C(F)F)c2)c1 [Example 50, 1-(3-(Difluoromethyl)benzyl)-5-(3,5-dimethylisoxazol-4-yl)pyridin-2(1H)-one]
IL-6 activity (IC50 <30 μM) (hIL-6 mRNA): Active
ApoA-1 activity (EC170 <30 μM) (ApoA-I mRNA): Active
FRET activity (IC50 <30 μM) BRD4(1) [1]: Active
Cell Proliferation activity (IC50 <30 μM) [2]: Active
c-myc activity (IC50 <30 μM) (c-myc): Active
FRET activity (IC50 <30 μM) BRD2(2) [3]: Active

Cc1noc(C)c1-c1ccc(=O)n([C@H](C)c2ccccc2)n1 [Example 108, (R)-6-(3,5-Dimethylisoxazol-4-yl)-2-(1-phenylethyl)pyridazin-3(2H)-one]
IL-6 activity (IC50 <30 μM) (hIL-6 mRNA): Active
ApoA-1 activity (EC170 <30 μM) (ApoA-I mRNA): Active
FRET activity (IC50 <30 μM) BRD4(1) [1]: Active
Cell Proliferation activity (IC50 <30 μM) [2]: Active
c-myc activity (IC50 <30 μM) (c-myc): Active
FRET activity (IC50 <30 μM) BRD2(2) [3]: Active

COc1ccc(Cn2nc(-c3cc(OC)c(OC)c(OC)c3)ccc2=O)cc1 [Example 117, 2-(4-Methoxybenzyl)-6-(3,4,5-trimethoxyphenyl)pyridazin-3(2H)-one]
IL-6 activity (IC50 <30 μM) (hIL-6 mRNA): Active
ApoA-1 activity (EC170 <30 μM) (ApoA-I mRNA): Active
FRET activity (IC50 <30 μM) BRD4(1) [1]: Active
Cell Proliferation activity (IC50 <30 μM) [2]: Not Active
c-myc activity (IC50 <30 μM) (c-myc): Not Active
FRET activity (IC50 <30 μM) BRD2(2) [3]: Active

COc1ccccc1Cn1cc(-c2c(C)noc2C)ccc1=O [Example 162, 5-(3,5-Dimethylisoxazol-4-yl)-1-(2-methoxybenzyl)pyridin-2(1H)-one]
IL-6 activity (IC50 <30 μM) (hIL-6 mRNA): Active
ApoA-1 activity (EC170 <30 μM) (ApoA-I mRNA): Active
FRET activity (IC50 <30 μM) BRD4(1) [1]: Active
Cell Proliferation activity (IC50 <30 μM) [2]: Active
c-myc activity (IC50 <30 μM) (c-myc): Active
FRET activity (IC50 <30 μM) BRD2(2) [3]: Active

Cc1noc(C)c1-c1cc(C#N)c(=O)n(Cc2ccccc2)c1 [Example 198, 1-Benzyl-5-(3,5-dimethylisoxazol-4-yl)-2-oxo-1,2-dihydropyridine-3-carbonitrile]
IL-6 activity (IC50 <30 μM) (hIL-6 mRNA): Not Active
ApoA-1 activity (EC170 <30 μM) (ApoA-I mRNA): Active
FRET activity (IC50 <30 μM) BRD4(1) [1]: Active
Cell Proliferation activity (IC50 <30 μM) [2]: Not Active
c-myc activity (IC50 <30 μM) (c-myc): Not Active

Cc1noc(C)c1-c1cc(Cl)c(=O)n(Cc2ccc(F)cc2)c1 [Example 181, 3-chloro-5-(3,5-dimethylisoxazol-4-yl)-1-(4-fluorobenzyl)pyridin-2(1H)-one]
IL-6 activity (IC50 <30 μM) (hIL-6 mRNA): Not Active
ApoA-1 activity (EC170 <30 μM) (ApoA-I mRNA): Active
FRET activity (IC50 <30 μM) BRD4(1) [1]: Active
Cell Proliferation activity (IC50 <30 μM) [2]: Not Active
c-myc activity (IC50 <30 μM) (c-myc): Active

CCNc1cc(-c2c(C)noc2C)cn(Cc2ccccc2)c1=O [Example 186, 1-benzyl-5-(3,5-dimethylisoxazol-4-yl)-3-(ethylamino)pyridin-2(1H)-one]
IL-6 activity (IC50 <30 μM) (hIL-6 mRNA): Active
ApoA-1 activity (EC170 <30 μM) (ApoA-I mRNA): Active
FRET activity (IC50 <30 μM) BRD4(1) [1]: Active
Cell Proliferation activity (IC50 <30 μM) [2]: Active
c-myc activity (IC50 <30 μM) (c-myc): Active

Cc1noc(C)c1-c1cc(C(N)=O)c(=O)n(Cc2ccccc2)c1 [Example 230, 1-Benzyl-5-(3,5-dimethylisoxazol-4-yl)-2-oxo-1,2-dihydropyridine-3-carboxamide]
IL-6 activity (IC50 <30 μM) (hIL-6 mRNA): Active
ApoA-1 activity (EC170 <30 μM) (ApoA-I mRNA): Active
FRET activity (IC50 <30 μM) BRD4(1) [1]: Active
Cell Proliferation activity (IC50 <30 μM) [2]: Active
c-myc activity (IC50 <30 μM) (c-myc): Active

Cc1noc(C)c1-c1cc(N)c(=O)n(Cc2ccc(Cl)s2)c1 [Example 222, 3-amino-1-((5-chlorothiophen-2-yl)methyl)-5-(3,5-dimethylisoxazol-4-yl)pyridin-2(1H)-one]
IL-6 activity (IC50 <30 μM) (hIL-6 mRNA): Active
ApoA-1 activity (EC170 <30 μM) (ApoA-I mRNA): Active
FRET activity (IC50 <30 μM) BRD4(1) [1]: Active
Cell Proliferation activity (IC50 <30 μM) [2]: Active
c-myc activity (IC50 <30 μM) (c-myc): Active

Cc1noc(C)c1-c1cc(N)c(=O)n(Cc2ccc(Cl)c(F)c2)c1 [Example 203, 3-amino-1-(4-chloro-3-fluorobenzyl)-5-(3,5-dimethylisoxazol-4-yl)pyridin-2(1H)-one]
IL-6 activity (IC50 <30 μM) (hIL-6 mRNA): Active
ApoA-1 activity (EC170 <30 μM) (ApoA-I mRNA): Active
FRET activity (IC50 <30 μM) BRD4(1) [1]: Active
Cell Proliferation activity (IC50 <30 μM) [2]: Active
c-myc activity (IC50 <30 μM) (c-myc): Active

Cc1noc(C)c1-c1cc(NC2CCCC2)c(=O)n(Cc2ccccc2)c1 [Example 208, 1-benzyl-3-(cyclopentylamino)-5-(3,5-dimethylisoxazol-4-yl)pyridin-2(1H)-one]
IL-6 activity (IC50 <30 μM) (hIL-6 mRNA): Active
ApoA-1 activity (EC170 <30 μM) (ApoA-I mRNA): Active
FRET activity (IC50 <30 μM) BRD4(1) [1]: Active
Cell Proliferation activity (IC50 <30 μM) [2]: Active
c-myc activity (IC50 <30 μM) (c-myc): Active

Cc1noc(C)c1-c1cc(N)c(=O)n(Cc2ccc(F)c(Cl)c2)c1 [Example 212, 3-amino-1-(3-chloro-4-fluorobenzyl)-5-(3,5-dimethylisoxazol-4-yl)pyridin-2(1H)-one]
IL-6 activity (IC50 <30 μM) (hIL-6 mRNA): Active
ApoA-1 activity (EC170 <30 μM) (ApoA-I mRNA): Active
FRET activity (IC50 <30 μM) BRD4(1) [1]: Active
Cell Proliferation activity (IC50 <30 μM) [2]: Active
c-myc activity (IC50 <30 μM) (c-myc): Active

Cc1noc(C)c1-c1cc(OCc2ccccc2)c(=O)n(Cc2ccccc2)c1 [Example 191, 1-benzyl-3-(benzyloxy)-5-(3,5-dimethylisoxazol-4-yl)pyridin-2(1H)-one]
IL-6 activity (IC50 <30 μM) (hIL-6 mRNA): Not Active
ApoA-1 activity (EC170 <30 μM) (ApoA-I mRNA): Active
FRET activity (IC50 <30 μM) BRD4(1) [1]: Active
Cell Proliferation activity (IC50 <30 μM) [2]: Active
c-myc activity (IC50 <30 μM) (c-myc): Active

Cc1noc(C)c1-c1cc(N)c(=O)n(Cc2ccc(Cl)c(Cl)c2)c1 [Example 213, 3-amino-1-(3,4-dichlorobenzyl)-5-(3,5-dimethylisoxazol-4-yl)pyridin-2(1H)-one]
IL-6 activity (IC50 <30 μM) (hIL-6 mRNA): Active
ApoA-1 activity (EC170 <30 μM) (ApoA-I mRNA): Active
FRET activity (IC50 <30 μM) BRD4(1) [1]: Active
Cell Proliferation activity (IC50 <30 μM) [2]: Active
c-myc activity (IC50 <30 μM) (c-myc): Active

Cc1noc(C)c1-c1cc(Nc2ccccn2)c(=O)n(Cc2ccccc2)c1 [Example 193, 1-benzyl-5-(3,5-dimethylisoxazol-4-yl)-3-(pyridin-2-ylamino)pyridin-2(1H)-one]
IL-6 activity (IC50 <30 μM) (hIL-6 mRNA): Active
ApoA-1 activity (EC170 <30 μM) (ApoA-I mRNA): Active
FRET activity (IC50 <30 μM) BRD4(1) [1]: Not Active
Cell Proliferation activity (IC50 <30 μM) [2]: Active
c-myc activity (IC50 <30 μM) (c-myc): Not Active

CN1CCN(c2ccc(=O)n(Cc3ccccc3)n2)CC1=O [Example 179, 2-benzyl-6-(4-methyl-3-oxopiperazin-1-yl)pyridazin-3(2H)-one]
IL-6 activity (IC50 <30 μM) (hIL-6 mRNA): Active
ApoA-1 activity (EC170 <30 μM) (ApoA-I mRNA): Active
FRET activity (IC50 <30 μM) BRD4(1) [1]: Active
Cell Proliferation activity (IC50 <30 μM) [2]: Active
c-myc activity (IC50 <30 μM) (c-myc): Active
